Source: patent US9592186B2, “Topical compositions and methods for skin lightening” (Avon Products, Inc., priority 2014, dated 2017)

System: Human epidermal melanocytes from dark-pigmented skin
Assay: Melanin absorbance (pigmentation) in cultured human epidermal melanocytes after 8 days of incubation
Assay type: cell-based
Settings: for effect on pigmentation (in words): summary of Table 1; for % Pigmentation (percent change of melanin absorbance relative to vehicle control): 8 days incubation, absorption at 405 nm
Description: The Compound of Formula (II) was examined for its ability to reduce pigmentation in vitro in human melanocytes. Human epidermal melanocytes from dark-pigmented skin were seeded in 6-well dishes and grown using commercially available Medium 254, a sterile, liquid medium prepared with 200 μM calcium chloride for the culture of human epidermal melanocytes, supplemented with 1% Penicillin/Streptomycin and 1% Human Melanocyte Growth Supplement. Corresponding controls were maintained without histamine, Diphenylhydramine HCl and Compound II. Four replicates were tested for each combination. After 8 days of incubation, melanin was collected and processed by washing the wells with IX phosphate-buffered saline (PBS), followed by addition of 200 μL of 2M NaOH to three of the four replicates, which are then scraped, pooled and boiled at 80° C. for an hour. Melanin absorption was then measured at 405 nm using a spectrophotometer.
A larger (positive or negative) percent change indicates a larger increase or reduction in melanin.

Row | Compound | effect on pigmentation (in words) (at both concentrations tested (0.001% and 0.0001%)) | % Pigmentation (percent change of melanin absorbance relative to vehicle control) (concentration 0.0001%) [%] | % Pigmentation (percent change of melanin absorbance relative to vehicle control) (concentration 0.001%) [%] | effect on pigmentation (in words) (5 μM)
1 | CC(=O)c1ccc(OCC(=O)NCC(c2ccco2)N2CCCCC2)cc1 (stereo not shown) [Compound (II)] | effective to reduce pigmentation | −10.40 | −40.83 | –
2 | NCCc1c[nH]cn1 [Histamine, reference compound] | – | – | – | significant increase in pigmentation
